According to patent publication US7875596B2, “Use of dermatan sulfates and/or desulfated heparins to treat or prevent heparinoid-induced autoimmune responses” (Celsus Biopharmaceuticals, Inc., priority 2004, dated 2011):

How the values were obtained:
[1] = molecular target: T1, purified α-thrombin in the presence of purified human HCII (Homo sapiens, UniProt P05546); assay: HCII/anti-IIa activity (plasma-free chromogenic anti-IIa assay with heparin cofactor II); assay type: biochemical
T1 construct: Performed in a plasma-free system with purified α-thrombin; purchased Enzyme Research Laboratories, South Bend Ind; (α-thrombin, Lot No. HT2450PRA)
T1 sequence (P05546 20-499): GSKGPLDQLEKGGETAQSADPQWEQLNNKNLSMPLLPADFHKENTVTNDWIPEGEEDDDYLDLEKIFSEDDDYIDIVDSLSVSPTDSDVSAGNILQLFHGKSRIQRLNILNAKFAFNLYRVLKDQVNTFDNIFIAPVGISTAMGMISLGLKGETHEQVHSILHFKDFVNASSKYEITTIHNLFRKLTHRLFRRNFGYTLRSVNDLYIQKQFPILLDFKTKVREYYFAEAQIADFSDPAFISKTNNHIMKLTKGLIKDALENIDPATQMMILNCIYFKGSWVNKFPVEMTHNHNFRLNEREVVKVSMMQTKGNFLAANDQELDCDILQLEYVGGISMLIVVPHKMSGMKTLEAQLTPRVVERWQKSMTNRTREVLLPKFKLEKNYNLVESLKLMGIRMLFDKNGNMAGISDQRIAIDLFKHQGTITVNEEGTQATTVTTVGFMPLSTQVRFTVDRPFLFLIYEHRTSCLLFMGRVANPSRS
Excerpt: For the purposes of the present invention, the terms “heparin cofactor II (HCII)-dependent anti-IIa activity,” “heparin cofactor II activity” and “HCII activity” refer interchangeably to the thrombin inhibitory potency of a sulfated mucopolysaccharide measured in the presence of purified human heparin cofactor II.
The chemical, physical and physiological properties of the dermatan sulfates, including the LMWDS embodiments, of this invention can be determined by the following methods: • a. Molecular weight. By gel permeation chromatography according to the method of and as defined by van Dedem et al., “Determinations of the Molecular Mass of Low Molecular Mass (LMM) Heparin,” Pharmeuropa (1991) 3:202-225 (herein incorporated by reference), using the 1st International Reference Standard for Low Molecular Weight Heparin (90/868) as the calibrant. Average molecular weights. […] The % sulfur is determined from the weight of barium sulfate. • c. […] Measurements can be performed manually or on an ACL 300 Plus Analyzer (Instrumentation Laboratory, Lexington Mass.) and anti-factor IIa activity calculated based on the USP Heparin Reference Standard K-5 (U.S. Pharmacopeial Convention, Inc., Rockville Md.). • e. […] Quantified by the PF4 ENHANCED® ELISA kit (Cat. No. X-HAT 45) according to the manufacturer's instructions (GTI, Waukesha Wis.).

[2] = Heparin assay (USP heparin potency)
Excerpt: The chemical, physical and physiological properties of the dermatan sulfates, including the LMWDS embodiments, of this invention can be determined by the following methods: • a. Molecular weight. By gel permeation chromatography according to the method of and as defined by van Dedem et al., “Determinations of the Molecular Mass of Low Molecular Mass (LMM) Heparin,” Pharmeuropa (1991) 3:202-225 (herein incorporated by reference), using the 1st International Reference Standard for Low Molecular Weight Heparin (90/868) as the calibrant. Average molecular weights. By viscometric methods as described by Liberti et al., “Physiochemical Studies of Fractionated Bovine Heparin II: Viscosity as a Function of Ionic Strength,” Arch. Biochem. Biophys. […] The % sulfur is determined from the weight of barium sulfate. • c. […] Measurements can be performed manually or on an ACL 300 Plus Analyzer (Instrumentation Laboratory, Lexington Mass.) and anti-factor IIa activity calculated based on the USP Heparin Reference Standard K-5 (U.S. Pharmacopeial Convention, Inc., Rockville Md.). • e. […] Quantified by the PF4 ENHANCED® ELISA kit (Cat. No. X-HAT 45) according to the manufacturer's instructions (GTI, Waukesha Wis.).
The chemical, physical and physiological properties of the O-desulfated heparins of this invention can be determined by the following methods: • a. […]

HCII/anti-IIa activity [1]: less than 15 u/mg
Substance: dermatan sulfate
heparin assay [2]: < 8 u/mg
